Consider four compounds from patent publication US12514266B2, “Composition containing quercetagetin” (Chenguang Biotech Group Co., Ltd., priority 2020, dated 2026).

Test [1] is described as follows: Determination of DPPH free radical scavenging ability. It counts as biochemical. Particulars: absolute ethanol, 30° C., 30 min, 517 nm. How it is done:
(§1) Each of the composition of Examples 9-17, as well as single-component quercetagetin, 6-hydroxykaempferol, patuletin was taken, and the detection of DPPH and hydroxyl radical scavenging ability was performed. The specific test methods are as follows.
[…], 6-hydroxykaempferol, patuletin, and compositions 9-17 were used to prepare sample solutions with concentrations of 1, 2, 3, 4, 5, and 6 μg/ml in absolute ethanol. Then, DPPH was prepared into a 2×10^−4 mol/L solution with absolute ethanol, and 2 mL of blank and sample solution were accurately absorbed and mixed with 2 mL of DPPH solution, respectively, the resultants were placed in a water bath at 30° C. in the dark for 30 min, and the absorbance A (blank) and Asample (sample) were measured at the wavelength of 517 nm.

Test [2] is described as follows: Determination of hydroxyl radical scavenging ability (salicylic acid method). It counts as biochemical. Particulars: 37° C., 15 min, 510 nm. How it is done: as §1
Quercetin, 6-hydroxykaempferol, patuletin, and compositions 9-17 were used to prepare sample solutions with concentrations of 100, 150, 200, 250, 300 μg/ml in absolute ethanol. 9 mmol/L salicylic acid-ethanol solution, 9 mmol/L FeSO4 solution and 8.8 mmol/L H2O2 solution were prepared. Then, different samples were added according to the order in the following table, and placed in a water bath at 37° C. for 15 min, and the absorbance at 510 nm was measured.

Test [3] in a line: Antioxidant effect in fish oil powder (peroxide value). Particulars: 40° C., 28 days; for Peroxide value of fish oil powder with an addition amount of 10 ppm: 10 ppm (based on active ingredients); for Peroxide value of fish oil powder with an addition amount of 100 ppm: 100 ppm (based on active ingredients). How it is done:
After the antioxidant and fish oil powder were evenly mixed, the resultants were placed in an incubator at 40° C., and samples were taken in 28 days to measure the peroxide value.

A short description of test [4]: Antioxidant effect in lipids: peroxide value of butter. The conditions noted are these: 150 ppm. How it is done: 5 parts of chicken oil and butter were taken respectively, each of which is 100 grams. Each 3 groups of chicken oil experimental groups and butter experimental groups were set up, and the composition of Example 6 was added according to the addition amount of 4, 6 and 8 ppm respectively; each 1 group of chicken oil control group and butter control group were set up, and ethoxyquin was added in an addition amount of 150 ppm; each 1 group of chicken oil blank group and butter blank group were set up, without adding any additives. The additives in each group were mixed evenly with the lipid, placed in a constant temperature incubator at 40° C., and samples were taken at 0, 3, 7, 14, 21 and 28 days to determine their peroxide value.

`COc1c(O)cc2oc(-c3ccc(O)c(O)c3)c(O)c(=O)c2c1O` [Patuletin, patuletin]: the “DPPH (IC50 μg/ml), half clearance” value in test [1] was 31.98 µg/mL. Further, the “Hydroxyl radical scavenging ability (IC50 μg/ml), half clearance” value (“Hydroxyl radical scavenging ability” for short) in test [2] stood at 595 µg/mL. Further, in test [3], the Peroxide value of fish oil powder with an addition amount of 10 ppm is 120 mmol/kg and the Peroxide value of fish oil powder with an addition amount of 100 ppm is 109 mmol/kg.

Consider `O=c1c(O)c(-c2ccc(O)cc2)oc2cc(O)c(O)c(O)c12` [6-hydroxykaempferol], for which the “DPPH (IC50 μg/ml), half clearance” value in test [1] was determined as 23.62 µg/mL. The “Hydroxyl radical scavenging ability” value in test [2] is 500 µg/mL. In test [3], this compound registered a Peroxide value of fish oil powder with an addition amount of 10 ppm of 142 mmol/kg and a Peroxide value of fish oil powder with an addition amount of 100 ppm of 121 mmol/kg.

For the compound `O=c1c(O)c(-c2ccc(O)c(O)c2)oc2cc(O)c(O)c(O)c12` [Quercetagetin, 3,3,4,5,6,7-hexahydroxyflavone], the “DPPH (IC50 μg/ml), half clearance” value in test [1] was 14.82 µg/mL. Further, in test [2], the “Hydroxyl radical scavenging ability” value stood at 412 µg/mL. In test [3], this compound showed a Peroxide value of fish oil powder with an addition amount of 10 ppm of 76.5 mmol/kg and a Peroxide value of fish oil powder with an addition amount of 100 ppm of 57.3 mmol/kg.

On to `CCOc1ccc2c(c1)C(C)=CC(C)(C)N2` [Ethoxyquin, ethoxyquin], for which the peroxide value of butter in test [4] (Day 0, 40° C.) amounted to 1.41 ± 0.15 mmol/kg; in test [4] (Day 3, 40° C.) it was 1.44 ± 0.142 mmol/kg; in test [4] (Day 7, 40° C.) it was 1.62 ± 0.104 mmol/kg; in test [4] (Day 14, 40° C.), 1.66 ± 0.075 mmol/kg; in test [4] (Day 21, 40° C.), 1.82 ± 0.1 mmol/kg; in test [4] (Day 28, 40° C.), 2.02 ± 0.197 mmol/kg.
